Experimental data from ChEMBL document CHEMBL1201862, “PubChem BioAssay data set” (2004).
Activity calls are given as the source filed them.

Columns and labels:
Format in all cases: functional
[1] = molecular target: T1, High affinity choline transporter 1 (Homo sapiens, UniProt Q9GZV3); assay: CHT inhibitors, dose response, cell-based, 5-point CRC, membrane potential dye (AID 504840)
T1 sequence (Q9GZV3 whole entry): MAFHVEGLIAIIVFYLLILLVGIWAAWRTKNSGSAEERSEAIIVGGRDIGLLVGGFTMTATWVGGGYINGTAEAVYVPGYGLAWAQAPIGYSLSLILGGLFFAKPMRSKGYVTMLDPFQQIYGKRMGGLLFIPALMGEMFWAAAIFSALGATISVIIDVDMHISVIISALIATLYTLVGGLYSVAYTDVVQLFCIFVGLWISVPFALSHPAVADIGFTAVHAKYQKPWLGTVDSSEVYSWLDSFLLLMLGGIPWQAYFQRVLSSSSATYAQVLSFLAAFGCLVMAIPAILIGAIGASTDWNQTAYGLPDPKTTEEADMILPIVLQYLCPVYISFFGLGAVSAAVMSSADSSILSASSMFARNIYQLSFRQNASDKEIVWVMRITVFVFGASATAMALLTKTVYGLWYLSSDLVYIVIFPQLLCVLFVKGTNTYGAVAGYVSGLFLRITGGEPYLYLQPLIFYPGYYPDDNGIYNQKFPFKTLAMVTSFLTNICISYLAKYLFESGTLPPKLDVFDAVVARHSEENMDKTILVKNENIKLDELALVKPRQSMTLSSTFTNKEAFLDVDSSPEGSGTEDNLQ

Genome polyprotein = Genome polyprotein (dengue virus type 2, UniProt P29990); assay: Dengue-2 NS5 methyltransferase inhibitors, primary screen, biochemical, confirmation dose response (AID 588689)
Genome polyprotein, sequence (P29990 2492-3391 limits assumed): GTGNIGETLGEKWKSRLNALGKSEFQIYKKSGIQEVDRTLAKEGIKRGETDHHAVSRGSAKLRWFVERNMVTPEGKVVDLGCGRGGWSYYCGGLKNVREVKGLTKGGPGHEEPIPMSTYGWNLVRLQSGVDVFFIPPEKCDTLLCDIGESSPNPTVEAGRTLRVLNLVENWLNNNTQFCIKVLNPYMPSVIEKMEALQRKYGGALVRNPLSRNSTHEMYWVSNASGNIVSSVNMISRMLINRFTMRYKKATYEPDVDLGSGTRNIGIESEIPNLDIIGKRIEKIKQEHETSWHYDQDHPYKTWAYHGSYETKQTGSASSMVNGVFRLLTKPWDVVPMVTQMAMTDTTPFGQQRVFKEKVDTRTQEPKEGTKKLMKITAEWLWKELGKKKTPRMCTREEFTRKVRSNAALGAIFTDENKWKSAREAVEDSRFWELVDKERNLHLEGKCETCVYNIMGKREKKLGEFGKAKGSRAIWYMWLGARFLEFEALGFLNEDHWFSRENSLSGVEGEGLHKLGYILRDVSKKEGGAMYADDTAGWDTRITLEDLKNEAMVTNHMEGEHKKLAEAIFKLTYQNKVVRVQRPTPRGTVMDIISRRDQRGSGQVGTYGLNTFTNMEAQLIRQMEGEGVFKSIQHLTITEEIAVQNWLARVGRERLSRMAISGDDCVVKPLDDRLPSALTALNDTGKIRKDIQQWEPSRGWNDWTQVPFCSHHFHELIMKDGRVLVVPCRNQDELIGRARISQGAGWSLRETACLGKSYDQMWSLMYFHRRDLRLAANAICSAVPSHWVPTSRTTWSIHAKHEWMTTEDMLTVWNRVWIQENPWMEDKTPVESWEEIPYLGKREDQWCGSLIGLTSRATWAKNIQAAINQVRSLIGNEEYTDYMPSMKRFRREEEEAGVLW

[2] = molecular target: T1, High affinity choline transporter 1; assay: CHT inhibitors, dose response, cell-based, 10-point CRC, membrane potential dye (AID 588401);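 also: membrane potential dye fluorescence of choline-evoked depolarization via CHT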
[3] = Luminescence Cell-Based Dose Retest to Confirm Inhibitors of Cancer Stem Cells. [Related pubchem assays (depositor defined):AID2717, AID2721]; settings: Homo sapiens
Vero = Vero cell cytotoxicity, cytotoxicity control for flavivirus capping enzyme inhibitors (AID 588742); settings: Chlorocebus sabaeus
[4] = molecular target: Melanin-concentrating hormone receptor 1 (Homo sapiens, UniProt Q99705); assay: Late-stage fluorescence-based counterscreen for antagonists of the G-protein coupled receptor 7 (GPR7): cell-based dose response assay to identify antagonists of the melanin-concentrating hormone receptor 1 (MCHR1) Set 6.
Melanin-concentrating hormone receptor 1, sequence (Q99705 whole entry): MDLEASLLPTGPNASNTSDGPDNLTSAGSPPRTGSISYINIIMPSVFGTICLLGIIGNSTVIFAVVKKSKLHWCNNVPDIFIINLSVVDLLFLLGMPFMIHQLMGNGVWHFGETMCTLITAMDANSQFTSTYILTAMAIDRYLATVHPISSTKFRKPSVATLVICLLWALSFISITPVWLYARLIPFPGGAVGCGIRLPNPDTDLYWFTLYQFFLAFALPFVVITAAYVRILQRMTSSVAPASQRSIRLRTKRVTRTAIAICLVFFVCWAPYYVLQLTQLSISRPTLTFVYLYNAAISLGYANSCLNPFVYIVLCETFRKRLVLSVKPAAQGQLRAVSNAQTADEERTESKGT

[5] = molecular target: T2, Neuropeptides B/W receptor type 1 (Homo sapiens, UniProt P48145); assay: GPR7 antagonist potency, late-stage follow-up, cell-based, fluorescence, dose response, set 6 (AID 588583)
T2 sequence (P48145 whole entry): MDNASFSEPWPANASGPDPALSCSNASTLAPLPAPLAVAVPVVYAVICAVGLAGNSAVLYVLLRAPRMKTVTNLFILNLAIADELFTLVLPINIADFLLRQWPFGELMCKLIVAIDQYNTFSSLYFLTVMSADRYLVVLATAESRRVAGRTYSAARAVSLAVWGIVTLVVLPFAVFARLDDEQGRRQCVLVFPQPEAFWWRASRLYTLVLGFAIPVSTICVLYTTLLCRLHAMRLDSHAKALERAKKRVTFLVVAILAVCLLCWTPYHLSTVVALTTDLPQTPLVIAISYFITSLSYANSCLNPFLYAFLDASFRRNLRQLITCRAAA
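For AC50 in this document: cells exposed to compound for roughly 70 hours or longer before luminescence read.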

COc1ccc(C)cc1NC(=O)c1ccccc1NS(=O)(=O)c1ccc(Cl)s1
active: IC50 [1] 5.82 µM | IC50 (Genome polyprotein) 49.3 µM | IC50 [2] 1.75 µM | AC50 [3] 5.21 µM | CC50 (Vero) 22.6 µM

N#CC(c1cccc(F)c1)c1c(Cl)cnn(Cc2cccc3ccccc23)c1=O (configuration not stated)
active: IC50 [4] 0.173 µM | IC50 [5] 0.173 µM
